# In US10369185B2, “Methods and compositions for enhancement of ability to concentrate” (KYOWA HAKKO BIO CO., LTD., priority 2014, dated 2019):
# “Also recorded” adds a separate entry of the source. Peptide text beside a SMILES is read from it.
# Test system: male runners
# Test: Dynavision D2 MODE A reaction test (hits and time per hit in 60 s)
# Assay type: in vivo, human
# Design: Mode A Avg Δ (average time per hit), group mean: unit not given here
# Conditions: for Mode A Avg Δ (average time per hit), group mean / Mode A Hits Δ, group mean: Post-Pre
# Procedure: The testing protocol is depicted in FIG. 1. Data collection occurred on four separate occasions. Each session required participants to perform a 60-min run at 75% of their previously measured VO2max. Following this run, all participants performed a run at 90% of their VO2max until volitional exhaustion. All participants performed their first trial (DHY) without any rehydration. During this session the total weight lost during the trial was determined. The fluid loss that occurred during this session was then used to determine the participant's swear rate (L·hr^−1). To continue in the study, participant's sweat rate was or exceeded 1.3 L·hr^−1. During the next three trails participants were provided 250 ml of fluid every 15 minutes in equal amounts. During one of the trials participants consumed only a flavored sports drink (ELECT only), while during the other trials participants consumed the alanine-glutamine supplement (Sustamine™) mixed in the same flavored sports drink at either a low (LD: 300 mg per 500 ml) or high (HD: 1 g per 500 ml) dose. Measurement of upper body reaction time was performed on the Dynavision D2 Visuomotor Training Device (D2; Dynavision International LLC, West Chester, Ohio). The D2 is a light training reaction device, developed to train sensory motor integration through the visual system. It consists of a board (4 foot×4 foot) that can be raised or lowered relative to the height of the operator. It contains 64 target buttons arranged into five concentric circles surrounding a center screen that can be illuminated to serve as a stimulus for the participant. Participants were required to assume a comfortable athletic stance and stand at a distance from the board where they could easily reach all of the lights. The board height was adjusted so the LCD screen was located just below eye level. A total of three different reaction tests were conducted. Participants were instructed to fixate their gaze on the LCD screen in the middle of the board and to keep their focus there for the entirety of the experiment. The second assessment (MODE A) measured the participant's ability to react to a stimulus as it changed positions on the board. An initial stimulus will present on the D2 in a 6 random location. The stimulus remained lit until it was struck by the participant. The stimulus then appeared at another random location. The participant was instructed to identify and strike as many stimuli as possible within 60 s. The number of hits and the average time per hits were recorded for each participant. Additionally, to make inferences on true effects of the different trials on reaction performance, an analysis based on the magnitude of differences, calculated from 90% confidence intervals, as previously described by Batterham and Hopkins (2005), was used in this study. Differences in Post-Pre performance (Δresponse) between trials were analyzed via a published spreadsheet (Hopkins 2007), with the smallest non-trivial change set at 20% of the grand standard deviation (Batterham and Hopkins 2005). All data are expressed as a mean effect±SD, with percent chances of a beneficial, trivial or negative outcome. Qualitative inferences, based on quantitative chances were assessed as: <1% almost certainly not, 1-5% very unlikely, 5-25% unlikely, 25-75% possibly, 75-95% likely, 95-99% very likely and >99% almost certainly (Hopkins 2002).
structure (smiles),measurement,setting,value
C[C@H](N)C(=O)N[C@@H](CCC(N)=O)C(=O)O [L-Alanyl-L-Glutamine] (H-Ala-Gln-OH),"Mode A Avg Δ, Interpretation",Dehydration vs High Dose,Possibly
same,"Mode A Avg Δ, Mean Difference",Dehydration vs High Dose,0.025
same,"Mode A Avg Δ, Percent Negative",Dehydration vs High Dose,2.83%
same,"Mode A Avg Δ, Percent Positive",Dehydration vs High Dose,69.46%
same,"Mode A Avg Δ, Percent Trivial",Dehydration vs High Dose,27.71%
same,"Mode A Hits Δ, Interpretation",Dehydration vs High Dose,possible negative effect; also recorded: Possibly
same,"Mode A Hits Δ, Mean Difference",Dehydration vs High Dose,−2.9
same,"Mode A Hits Δ, Percent Negative",Dehydration vs High Dose,70.21%
same,"Mode A Hits Δ, Percent Positive",Dehydration vs High Dose,2.09%
same,"Mode A Hits Δ, Percent Trivial",Dehydration vs High Dose,27.70%
same,"Mode A Avg Δ, Interpretation",Dehydration vs Low Dose,Possibly
same,"Mode A Avg Δ, Mean Difference",Dehydration vs Low Dose,0.02
same,"Mode A Avg Δ, Percent Negative",Dehydration vs Low Dose,2.61%
same,"Mode A Avg Δ, Percent Positive",Dehydration vs Low Dose,61.93%
same,"Mode A Avg Δ, Percent Trivial",Dehydration vs Low Dose,35.45%
same,"Mode A Hits Δ, Interpretation",Dehydration vs Low Dose,possible negative effect; also recorded: Possibly
same,"Mode A Hits Δ, Mean Difference",Dehydration vs Low Dose,−2.2
same,"Mode A Hits Δ, Percent Negative",Dehydration vs Low Dose,57.68%
same,"Mode A Hits Δ, Percent Positive",Dehydration vs Low Dose,3.88%
same,"Mode A Hits Δ, Percent Trivial",Dehydration vs Low Dose,38.43%
same,"Mode A Avg Δ, Interpretation",Gatorade vs High Dose,Possibly
same,"Mode A Avg Δ, Mean Difference",Gatorade vs High Dose,0.023
same,"Mode A Avg Δ, Percent Negative",Gatorade vs High Dose,2.17%
same,"Mode A Avg Δ, Percent Positive",Gatorade vs High Dose,67.69%
same,"Mode A Avg Δ, Percent Trivial",Gatorade vs High Dose,30.14%
same,"Mode A Hits Δ, Interpretation",Gatorade vs High Dose,possibly negative
same,"Mode A Hits Δ, Mean Difference",Gatorade vs High Dose,2.7
same,"Mode A Hits Δ, Percent Negative",Gatorade vs High Dose,65.88%
same,"Mode A Hits Δ, Percent Positive",Gatorade vs High Dose,2.87%
same,"Mode A Hits Δ, Percent Trivial",Gatorade vs High Dose,31.25%
same,"speed per hit, MODE A",HD and LD compared to DHY and ELECT only,not statistically different
same,"improvements of successful hits, MODE A","HD and LD compared to DHY and ELECT only, not statistically significant",3-4 fold
same,"Mode A Avg Δ (average time per hit), group mean",High Dose (1 g per 500 ml),−0.028
same,"Mode A Hits Δ, group mean",High Dose (1 g per 500 ml),3.67
same,"Mode A Avg Δ (average time per hit), group mean",Low Dose (300 mg per 500 ml),−0.023
same,"Mode A Hits Δ, group mean",Low Dose (300 mg per 500 ml),2.92
same,"Mode A Avg Δ, Interpretation",Low Dose vs Gatorade,Unclear
same,"Mode A Avg Δ, Mean Difference",Low Dose vs Gatorade,−0.018
same,"Mode A Avg Δ, Percent Negative",Low Dose vs Gatorade,50.55%
same,"Mode A Avg Δ, Percent Positive",Low Dose vs Gatorade,44.41%
same,"Mode A Avg Δ, Percent Trivial",Low Dose vs Gatorade,5.04%
same,"Mode A Hits Δ, Interpretation",Low Dose vs Gatorade,Unclear
same,"Mode A Hits Δ, Mean Difference",Low Dose vs Gatorade,1.9
same,"Mode A Hits Δ, Percent Negative",Low Dose vs Gatorade,42.26%
same,"Mode A Hits Δ, Percent Positive",Low Dose vs Gatorade,50.35%
same,"Mode A Hits Δ, Percent Trivial",Low Dose vs Gatorade,7.39%
same,"Mode A Avg Δ, Interpretation",Low Dose vs High Dose,Very Likely
same,"Mode A Avg Δ, Mean Difference",Low Dose vs High Dose,0.005
same,"Mode A Avg Δ, Percent Negative",Low Dose vs High Dose,0.02%
same,"Mode A Avg Δ, Percent Positive",Low Dose vs High Dose,2.51%
same,"Mode A Avg Δ, Percent Trivial",Low Dose vs High Dose,97.47%
same,"Mode A Hits Δ, Interpretation",Low Dose vs High Dose,Likely
same,"Mode A Hits Δ, Mean Difference",Low Dose vs High Dose,−0.75
same,"Mode A Hits Δ, Percent Negative",Low Dose vs High Dose,9.11%
same,"Mode A Hits Δ, Percent Positive",Low Dose vs High Dose,0.11%
same,"Mode A Hits Δ, Percent Trivial",Low Dose vs High Dose,90.77%
